Laboratory results reported in patent US7964587B2, “Tocopherol and tocotrienol aerosols” (Children's Hospital & Research Center at Oakland, priority 2002, dated 2011).
Where two headings read alike, the source gives them in different places. Blank lines part the entries; values can stand above or below the molecule they belong to.

Assays:
[1] = plasma and exudate concentrations of alpha-T, gamma-T and gamma-CEHC in the air-pouch model; conditions: for gamma-T concentration in the collected exudate: 20-h after carrageenan
Protocol: Carrageenan-induced inflammation in the air-pouch model was performed and evaluated substantially as previously described (14). Alpha-T and gamma-T were measured in plasma and exudate as previously described (12). Gamma-CEHC was quantified essentially as previously described (13).
To evaluate the relative bio-availability of the administrated compounds, we measured plasma and exudate concentrations of gamma-T and alpha-T as well as plasma gamma-CEHC.

[2] = tested on: PGE2; test: inhibition of PGE2, apparent IC50s of vitamin E forms; assay type: cell-based; conditions: for inhibitory effect on PGE2: e.g. ref. 10
[3] = tested on: carrageenan-induced inflammation; test: carrageenan-induced inflammation in the air-pouch model; assay type: in vivo, rat
Protocol: For this experimental protocol, we adapted the methods recited in the Experimental Example reported below. […] Formulations were administered as described below, wherein the recited tocopherol was dissolved in tocopherol-stripped corn oil, and continuously administrated by gavage for three days before the induction of inflammation. The PGE2 component of the formulation was empirically varied and adjusted to provide a minimized synergistic concentration. For example, aspirin formulations were adjusted to 50 or 100 mg/Kg with gamma-T at 30 mg/Kg. In controls evaluating the effects of aspim or gamma-T alone, we increased the aspririn dosage to 150 mg/Kg and gamma-T to […], respectively.
Gamma-CEHC was quantified essentially as previously described (13).
For the measurement of PGE2, LTB4 and 8-isoprostane, the exudate fluid was mixed vigorously with 2 mL methanol to precipitate proteins, and with 5 mL hexane to remove lipids. Following a brief centrifugation and aspiration of the hexane layer, the methanol layer was removed and evaporated under N2. PGE2, LTB4 and 8-isoprostane were measured using the corresponding ELISA kits from Cayman Chemicals (Ann Arbor, Mich.). TNF-a and lactate dehydrogenase (LDH) in the exudate were measured directly using an ELISA kit from R&D (Minneapolis, Minn.) and an analytical kit from Roche (Indianapolis, Ind.), respectively.
The total amount of nitrate and nitrite in the exudate was measured using the Model 280 nitric oxide analyzer (NOA™) (Sievers Instruments, Inc.; Boulder, Colo.). Nitrite and nitrate in the exudate were reduced by vanadium (III) to nitric oxide, which then was measured by a red-sensitive photomultiplier tube after being converted by ozone to chemiluminescent reactive nitrogen dioxide. Nitrite and nitrate were quantified based on a standard curve from nitrate that was established under the identical conditions.
Carrageenan-induced inflammation in the air-pouch model is commonly used to evaluate the pharmaceutical potency of anti-inflammatory drugs (14). […] These cells play a key role in the inflammatory response (11, 14, 15). A single injection of carrageenan caused a potent localized inflammation, as indicated by a marked increase in white cell infiltration, eicosanoid formation and tissue damages (11). To study the effect of gamma-CEHC on eicosanoid synthesis and neutrophil infiltration, it (1 mg/ml, 2 ml in PBS) was injected directly into the air pouch right before the injection of carrageenan. Since the retention of gamma-CEHC is relatively short (16), its effect was evaluated at 6 h after the induction of inflammation.
To test the effects of tocopherols, alpha-T or gamma-T, dissolved in tocopherol-stripped corn oil, was continuously administrated by gavage for three days before the induction of inflammation. Effects were evaluated at 20 h after carrageenan injection, when cell infiltration had reached a maximum in the pouch.

[4] = tested on: carrageenan-induced inflammation; conditions: cited from earlier work
[5] = tested on: normal epithelial cells; test: effect on normal epithelial cells; assay type: cell-based
[6] = tested on: human prostate epithelial cancer cells; test: anti-proliferative effect on prostate cancer cells; assay type: cell-based
[7] = tested on: lung epithelial cancer cells; test: anti-proliferative effect on lung cancer cells; assay type: cell-based, human
[8] = cited from earlier work
[9] = 1 mg/ml, 2 ml in PBS injected into the air pouch, 6 h
[10] = 33 mg/kg by gavage for three days, 20 h after carrageenan, P<0.05

Molecule: CC(=O)Oc1ccccc1C(=O)O [aspirin, Acetylsalicylic acid]
neutrophil infiltration ([4]; doses of 100-150 mg/kg): did not affect
reduction of PGE2 ([4]; doses of 100-150 mg/kg): 50-70%
cell infiltration ([4]; higher doses, >200-300 mg/kg): inhibits cell infiltration

Molecule: Cc1cc(O)c(C)c2c1O[C@](C)(CCC[C@H](C)CCC[C@H](C)CCCC(C)C)CC2 [beta-T, beta-tocopherol, reference compound]
inhibitory effect on PGE2 [2]: weak to no inhibitory effect

Molecule: CC(C)=CCC/C(C)=C/CC/C(C)=C/CC[C@]1(C)CCc2cc(O)c(C)c(C)c2O1 [gamma-tocotrienol]
IC50 [2]: 1 to 2.5 µM

Molecule: alpha-tocotrienol [reference compound]
inhibitory effect on PGE2 [2]: weak to no inhibitory effect

The next lines start with results.

increased alpha-T level in the plasma and exudate ([1]; 33 mg/kg alpha-T): approximately 2 fold
decrease of gamma-T in the exudate caused by alpha-T administration ([1]; P<0.05): 40%
decrease of gamma-T in the plasma caused by alpha-T administration ([1]; P<0.05): ~55%
Molecule: Cc1c(C)c2c(c(C)c1O)CC[C@@](C)(CCC[C@H](C)CCC[C@H](C)CCCC(C)C)O2 [alpha-T, alpha-tocopherol, reference compound]
inhibitory effect on PGE2 [2]: weak to no inhibitory effect
effects on generation of eicosanoids and 8-isoprostane ([3]; 33 mg/kg): did not show any significant effects

IC50 [2]: 2.5 to 5 µM
Molecule: Cc1cc(O)cc2c1O[C@](C)(CCC[C@H](C)CCC[C@H](C)CCCC(C)C)CC2 [delta-T, Delta-tocopherol]

plasma concentration of gamma-CEHC ([1]; rat, in vivo): Nano-molar concentrations
plasma gamma-CEHC level relative to plasma gamma-T ([1]; rat, in vivo): less than 10%
Molecule: Cc1c(O)cc2c(c1C)OC(C)(CCC(=O)O)CC2 (centres unmarked) [gamma-CEHC, 2,7,8-trimethyl-2-(b-carboxyethyl)-6-hydroxychroman]
inhibition of LTB4 [3, 9]: inhibited LTB4 and neutrophil infiltration, though non-significantly
inhibition of neutrophil infiltration [3, 9]: inhibited LTB4 and neutrophil infiltration, though non-significantly
reduction of PGE2 in the pouch ([3]; 1 mg/ml, 2 ml in PBS injected into the air pouch, 6 h after induction, P<0.05): ~29%

elevation of gamma-T in exudate fluid vs corn-oil fed controls ([1]; 33 mg/kg): ~10 fold
gamma-T concentration in exudate, corresponding molar concentration ([1]; 33 mg/kg): ~10 µM
increase of gamma-T in the plasma vs corn-oil fed controls ([1]; 33 mg/kg): 3 fold
ratio of gamma-T to alpha-T in the exudate ([1]; 33 mg/kg gamma-T): ~0.3
gamma-T concentration in the collected exudate ([1]; 33 mg/kg): 93.3 nmol/gprotein
elevation of gamma-T in exudate fluid vs corn-oil fed controls ([1]; 100 mg/kg): ~20 fold
gamma-T concentration in exudate, corresponding molar concentration ([1]; 100 mg/kg): ~20 µM
increase of gamma-T in the plasma vs corn-oil fed controls ([1]; 100 mg/kg): 5 fold
ratio of gamma-T to alpha-T in the exudate ([1]; 100 mg/kg gamma-T): ~0.7
gamma-T concentration in the collected exudate ([1]; 100 mg/kg): 193 nmol/gprotein
ratio of gamma-T to alpha-T in the plasma ([1]; 33 or 100 mg/kg gamma-T): ~0.15
effect of gamma-T administration on alpha-T levels ([1]; rat, in vivo): did not significantly affect
IC50 [2]: 5 to 10 µM
Molecule: Cc1c(O)cc2c(c1C)O[C@](C)(CCC[C@H](C)CCC[C@H](C)CCCC(C)C)CC2 [gamma-T, gamma-tocopherol]
effect on normal epithelial cells [5]: had no effect
anti-proliferative effect [6]: showed anti-proliferative effects
effect on total nitrate and nitrite ([3]; 33 mg/kg): had no effect
reduction of LTB4 [3, 10]: 70%
reduction of PGE2 [3, 10]: 46%
reduction of 8-isoprostane in the pouch (lipid peroxidation) ([3]; 33 mg/kg, P<0.05): ~57%
attenuation of the loss of food consumption ([3]; 33 mg/kg, non-significant, P=0.2): 20%
inhibition of TNF-a ([3]; 33 mg/kg, non-significant, P=0.29): ~51%
inhibitory potency against PGE2 ([3]; 100 mg/kg by gavage for three days, 20 h, P<0.05): 51%
attenuation of the loss of food consumption ([3]; 100 mg/kg, P<0.03): 30%
reduction of 8-isoprostane in the pouch (lipid peroxidation) ([3]; 100 mg/kg, P<0.05): ~57%
lowering of LDH (cytotoxicity and tissue damage marker) ([3]; 100 mg/kg, P=0.067): 30%
reduction of TNF-a ([3]; 100 mg/kg, P=0.069): 65%
reduction of total nitrite and nitrate ([3]; 100 mg/kg, P=0.1): 40%
neutrophil infiltration ([3]; gavage 33 or 100 mg/kg, 20 h): did not affect
anti-proliferative effect [7]: showed anti-proliferative effects
fraction of gamma-T converted to gamma-CEHC [8]: ≤ 50%
